One data set relates to MB2141 melanoma line. Kind of data set: ATP viability assay (Cell Titer-Glo). The class given is cell-based. The settings on record: Homo sapiens; MB2141, EML4-ALK, mucosal, 48 h. The protocol:
(§1) Cells were treated for 48 h for viability assays and primary sphere assays.
(§2) ATP viability assay, primary and secondary sphere assays: Cell viability was evaluated via Cell Titer-Glo Luminescent cell viability assay (Promega Corp., Madison, Wis.) according to the manufacturer's protocol. All sphere assays were completed as previously described. The experimental schematic for the primary and secondary sphere assays was described previously. All assays were performed in no less than triplicate for each cell line and repeated at least three times for each line. Drug treatments began 120 h after seeding in the primary sphere assay and 24 h after seeding for the monolayer ATP assay.
(§3) Calculation of IC50 and Combination index (CI) values: IC50 values were calculated from the relative viability results of ATP assays, and were derived by a sigmoidal dose (log)-response (variable slope) curve with GraphPad Prism 8 software. […] This method uses a median-effect equation and Combination-index theorem to calculate synergy between two drugs and identifies the drug interaction as values […]. This is defined as combination-index values (CI values). The program requires entering a series of “dose (D) and effect (fa)” into the program for each drug alone as well as the combination therapy.

The subject of another data set is Hs294T melanoma line. Kind of data set: ATP viability assay (Cell Titer-Glo). The class given is cell-based. As to conditions: Homo sapiens, Hs 294T, WT for BRAF/NRAS, 48 h. The procedure: as §1, §2, §3
Another data set concerns MB1692 melanoma line. Kind of data set: ATP viability assay (Cell Titer-Glo). The class given is cell-based. The settings on record: Homo sapiens; MB1692, AGK-BRAF, 48 h. The protocol:
as §1, §2, §3

In the next data set the test system is WM852c melanoma line. Kind of data set: ATP viability assay (Cell Titer-Glo). The class given is cell-based. As to conditions: Homo sapiens, NRAS, 48 h. The procedure: as §1, §2, §3
In the next data set the test system is MB2724 melanoma line. Kind of data set: ATP viability assay (Cell Titer-Glo). The settings on record: Homo sapiens; MB2724, Triple WT, acral, 48 h. In kind it is cell-based. The protocol:
as §1, §2, §3

A further data set concerns MB2114 melanoma line. Put plainly: ATP viability assay (Cell Titer-Glo). The class given is cell-based. As to conditions: Homo sapiens; MB2114, BRAF V600E, 48 h. The protocol:
as §1, §2, §3

The next data set relates to 1205Lu melanoma line. Put plainly: ATP viability assay (Cell Titer-Glo). The class given is cell-based. The settings on record: Homo sapiens, BRAFV600E, 48 h. The protocol: as §1, §2, §3
For another data set, the system named is Hs852T melanoma line. Put plainly: ATP viability assay (Cell Titer-Glo). In kind it is cell-based. As to conditions: Homo sapiens, WT for BRAF, 48 h. The procedure: as §1, §2, §3
The next data set relates to MB3616 melanoma line. Kind of data set: ATP viability assay (Cell Titer-Glo). In kind it is cell-based. The settings on record: Homo sapiens; MB3616, NRAS Q61K, 48 h. The protocol: as §1, §2, §3
A further data set deals with SKMEL-28 melanoma line. Kind of data set: ATP viability assay (Cell Titer-Glo). The settings on record: Homo sapiens, SK-MEL-28; SKMEL-28, BRAFV600E, 48 h. In kind it is cell-based. The protocol: as §1, §2, §3
A further data set has as its system MB3961 melanoma line. Put plainly: ATP viability assay (Cell Titer-Glo). The class given is cell-based. As to conditions: Homo sapiens; MB3961, NRAS Q61K, 48 h. The procedure:
as §1, §2, §3

The next data set concerns A375 melanoma line. Put plainly: ATP viability assay (Cell Titer-Glo). In kind it is cell-based. As to conditions: Homo sapiens, A-375; A375, BRAFV600E, 48 h. The procedure:
as §1, §2, §3

A further data set concerns MB3429 melanoma line. Kind of data set: ATP viability assay (Cell Titer-Glo). The class given is cell-based. The settings on record: Homo sapiens, 48 h. The protocol: as §1, §2, §3
A further data set has as its system MB3447 melanoma line. Put plainly: ATP viability assay (Cell Titer-Glo). The class given is cell-based. As to conditions: Homo sapiens; MB3447, Triple WT, 48 h. The protocol:
as §1, §2, §3

The test system of the next data set is MB4667 melanoma line. Kind of data set: ATP viability assay (Cell Titer-Glo). The class given is cell-based. The settings on record: Homo sapiens; MB4667, NRAS Q61R, acral, 48 h. The protocol:
as §1, §2, §3

For data set [1] the following is noted: higher doses and more frequently than in the current study; cited from earlier work.
For data set [2], the system named is regulatory T cells (Tregs). The settings on record: cited from earlier work.
A further data set relates to B16F10 melanoma cells. The class given is in vivo. As to conditions: retro-orbitally daily at 40 mg/kg from day 6 post implantation. The procedure:
(§4) 2.0×10^5 B16F10 melanoma cells were injected in the flanks of 7-week-old C57BL/6J mice on day 0. MCL1 inhibitors was administered retro-orbitally daily at 40 mg/kg, starting at day 6 post tumor implantation. […] Flow cytometry of tumor-infiltrating immune cells of Veh (vehicle control) and 40 mg/kg MCL1 inhibitor S63845 treated tumors at day 10 post tumor implantation. […] Similar experiments as in a, except with i.p injection. […] 2.0×10^5 B16F10 melanoma cells were injected in the flanks of 7-week-old C57BL/6J mice. MCL1-i was administered through retro-orbital injection daily at 40 mg/kg on days 5-9, and anti-PD1 was injected intraperitoneally at 250 ug on days 7, 11, 14 and 16.
(§5) Tumor volume was measured every 2 days with digital calipers. The following formula was used to calculate tumor volume: tumor volume (mm3)=(length in mm×width in mm2)/2.
Tumor volume was measured every 2 days with digital calipers.

The next data set deals with MP41. As to conditions: MP41 uveal melanoma xenograft. The procedure: A uveal melanoma cell line, MP41, was used in the xenograft study, and tumor volume Panel (a) and weight of the mice Panel (b) were measured.
The viability of the DMSO control for each cell line was set to 100%. Panel (c) A uveal melanoma line, MP41, was used in the xenograft study, and tumor volume and weight of the mice were measured.
Drug treatments started when the tumors were palpable. Treatment groups consisted of randomly divided mice of at least 8 tumors each group. All drugs were prepared according to the manufacturer's protocol, or previously described. S63845 was administered at 25 mg/kg twice weekly. […] The tumor samples were collected at the end of the experiment for further studies.

In another data set the test system is A375 cells. Kind of data set: Viability of A375 cells with BCL2 or MCL1 knockdown. The class given is cell-based, human. The settings on record: A375, 48 h. The text has this:
(a and b) Comparison between two genotypic groups: BRAF-hotspot mutated (MUT) (n=110) and BRAF-WT (WT) (harboring RAS hotspot mutated, any NF1 mutated, and triple wild type n=122). Panel (a) mRNA expression values for BCL2, CASP8, PDCD4, and MCL1. Panel (b) Relative RPPA protein expression values for PDCD4, CASP8, and BCL2. MCL1 was not included on the RPPA panel. Each dot represents an individual sample, and the horizontal line represents the mean. Panels (c) and (d) show the effects of BCL2 or MCL1 knockdown in A375 cells. Cells were treated with the indicated drugs for 48 h. […] Error bars represent +/−SEM.
Creation of short hairpin RNA transduced cell lines and CRISPR/Cas9-mediated BIM knockout cell lines: ShRNA lentiviral particles (Santa Cruz Biotechnology, Dallas, Tex.) were used to construct stable cell lines as previously described. BIM-knockout lines were generated using CRISPR/Cas9 technology, as previously described.

The test system of data set [3] is tumor-infiltrating immune cells. Put plainly: Flow cytometry of tumor-infiltrating immune cells, B16 syngeneic model. The class given is in vivo, mouse. The settings on record: 40 mg/kg, day 10 post tumor implantation. The protocol:
as §4, §5

The test system of a further data set is human melanoma lines. Put plainly: ATP viability assay, panel of melanoma lines. The class given is cell-based. The settings on record: single drug, up to 2.5 uM, 48 h. The protocol: as §1, §2, §3

“Also recorded” adds a separate entry of the source. Where two headings read alike, the source gives them in different places.

Regarding `CC1(C)CCC(CN2CCN(c3ccc(C(=O)NS(=O)(=O)c4ccc(NCC5CCOCC5)c([N+](=O)[O-])c4)c(Oc4cnc5[nH]ccc5c4)c3)CC2)=C(c2ccc(Cl)cc2)C1` [ABT-199, venetoclax], the IC50 with MB2141 melanoma line, in the data set on Hs294T melanoma line, in the data set with MB1692 melanoma line, in the data set on WM852c melanoma line, with MB2724 melanoma line and in the data set on MB2114 melanoma line was over 10 µM in each case. The IC50 in the data set on 1205Lu melanoma line was over 10 µM; in the data set on Hs852T melanoma line it was 8.8 µM; in the data set with MB3616 melanoma line, 9.69 µM; in the data set on SKMEL-28 melanoma line, over 10 µM; in the data set with MB3961 melanoma line it was over 10 µM; in the data set with A375 melanoma line, over 10 µM. Further, the concentration for half-maximal inhibition (IC50) in the data set with MB3429 melanoma line (MB3429, BRAF G596C, GNA11 R183C, read-out: IC50) is 3.91 µM; with MB3447 melanoma line, over 10 µM; in the data set with MB4667 melanoma line, 7.69 µM.
For the compound `Cc1c2c(nn1C)CSCc1cc(n(C)n1)CSc1cc(c3ccccc3c1)OCCCc1c(C(=O)O)n(C)c3c-2c(Cl)ccc13` [AZD5991], the toxicity entry in data set [1] is “Minimal toxicity”.
`COC1=CC(c2cc3ccccc3[nH]2)=N/C1=C\c1[nH]c(C)cc1C` [GX15-070]: the “cell death of regulatory T cells” value in data set [2] is “preferentially induces cell death”.
Turning to `Cc1c(-c2c(-c3ccc(F)o3)sc3ncnc(O[C@H](Cc4ccccc4OCc4ccnn4CC(F)(F)F)C(=O)O)c23)ccc(OCCN2CCN(C)CC2)c1Cl` [S63845], in the data set with B16F10 melanoma cells, the tumor growth entry is on record as “blocked tumor growth; also recorded: inhibited tumor growth curve”. Besides, the mouse weight entry with MP41 is listed as “without affecting mouse weight”. In the data set on MP41, the “tumor growth (tumor volume)” value is given as “significantly inhibited uveal melanoma tumor growth”. Also, the “sensitivity after BCL2 knockdown (shBCL2)” value with A375 cells was “sensitized cells”. Also, the “frequency of MDSCs in tumors” value in data set [3] is “drastically decreased”. For the same compound, the “frequency of tumor-infiltrating CD8+ T cells” value in data set [3] is listed as “increased”. Also, the “effect on cell viability” value in the data set with human melanoma lines is “little effect on cell viability”. Moreover, the concentration for half-maximal inhibition (IC50) was 2.67 µM with MB2141 melanoma line; 2.9 µM in the data set on Hs294T melanoma line; 7.42 µM with MB1692 melanoma line; 7.81 µM in the data set with WM852c melanoma line; 3.24 µM in the data set with MB2724 melanoma line; over 10 µM in the data set with MB2114 melanoma line. For the same compound, the IC50 came out at 7.2 µM with 1205Lu melanoma line; 6.14 µM in the data set with Hs852T melanoma line; 8.11 µM in the data set on MB3616 melanoma line; 4 µM in the data set with SKMEL-28 melanoma line; 2.91 µM in the data set with MB3961 melanoma line; 6.33 µM in the data set on A375 melanoma line. Moreover, the IC50 in the data set with MB3429 melanoma line is 8.85 µM; in the data set on MB3447 melanoma line, 5.49 µM; in the data set on MB4667 melanoma line it was over 10 µM.

Values taken from patent publication US20220347180A1, “ENHANCING CANCER THERAPY TREATMENT WITH BH3 MIMETICS” (THE REGENTS OF THE UNIVERSITY OF COLORADO, A BODY CORPORATE, priority 2019, published 2022).
